Laboratory results reported in paper PMC4684214, “Timberol® Inhibits TAAR5-Mediated Responses to Trimethylamine and Influences the Olfactory Threshold in Humans” (PLoS ONE, 2015).

Molecular target: T1, hOR51E1 (Homo sapiens, UniProt Q8TCB6)
T1 construct: gene OR51E1; recombinant receptor plasmid transfected in HANA3A cells; with G-alpha-olf, RTP1S and M3 muscarinic receptor
T1 sequence (Q8TCB6 1-318): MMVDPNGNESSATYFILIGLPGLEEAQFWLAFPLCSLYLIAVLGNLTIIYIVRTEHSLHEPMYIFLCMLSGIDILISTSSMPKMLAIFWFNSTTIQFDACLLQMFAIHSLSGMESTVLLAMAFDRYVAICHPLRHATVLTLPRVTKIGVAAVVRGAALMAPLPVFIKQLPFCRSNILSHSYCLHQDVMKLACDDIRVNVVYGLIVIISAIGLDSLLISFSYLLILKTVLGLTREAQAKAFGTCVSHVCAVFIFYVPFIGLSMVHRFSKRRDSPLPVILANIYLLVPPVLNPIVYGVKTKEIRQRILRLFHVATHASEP
Assay: Cre-luciferase reporter gene assay (cAMP)
Format: cell-based
Conditions: agonist; M3 muscarinic receptor co-expressed; 37°C, 4 h
Description: Cre-luciferase reporter gene assay (cAMP) on hOR51E1 | (B) nonanoic acid and hOR51E1

EC50: 103 ± 23.1 µM
Compound: CCCCCCCCC(=O)O [nonanoic acid]
